Patent US20120289524A1, “PYRROLO [3,2-E] [1,2,4] TRIAZOLO [1,5-A] PYRIMIDINES DERIVATIVES AS INHIBITORS OF MICROGLIA ACTIVATION” (Senexis Limited, priority 2009, published 2012)
Where two headings read alike, the source gives them in different places.

How the values were obtained:
[1] = test system: Mouse BALB/c monocyte macrophages, J774.2; assay: Inhibition of β-amyloid induced activation: TNF-alpha release (ELISA / Meso Scale Discovery); type: cell-based; details: J774.2 cells, 20 μM Aβ(1-42), 50 U/ml Interferon gamma, 24 hours, read-out: IC50 (μM) TNF-α release
Description: (§1) 1. Inhibition of β-amyloid Induced Activation.
(§2) Mouse BALB/c monocyte macrophages, J774.2, {ECACC 85011428} were grown and sub-cultured in cell media (DMEM containing 10% FBS, 1% L-glutamine and 1% penicillin/streptomycin). The J774 cells were plated at 100,000 cells/well in 50 μl cell media on 96 well plates and placed in a 37° C., 5% CO2 incubator overnight prior to experiments.
(§3) The addition of Aβ(1-42) and compounds to the J774 cells was performed using a Biotek precision 2000 liquid handling instrument. 3 μl of compound in DMSO ranging from 8 μM to 6 mM were pipetted into a “daughter plate” containing 294 μl of cell media and mixed thoroughly. 3 μl of Aβ(1-42) in DMSO at 4 mM was then added to the “daughter plate” and mixed thoroughly. 50 μl was then removed from the “daughter plate” and added to the plated J774 cells. The final concentrations in the wells containing 100 μl cell media were 20 μM Aβ(1-42), the compounds ranged from ˜40 nM to 30 μM in 1% DMSO and also in the presence of 50 U/ml Interferon gamma. The plates were incubated for 24 hours in a 37° C., 5% CO2 incubator. After 24 hours incubation the media from the wells were collected and stored at −20° C. until required for testing.
The TNF-alpha levels in the media were tested using a TNF-alpha ELISA (R&D Systems MTA00) or Meso Scale Discovery MS6000 Mouse Proinflammatory-7 kit, using the manufacturers instructions.

[2] = test system: Mouse BALB/c monocyte macrophages, J774.2; assay: Inhibition of β-amyloid induced activation: nitric oxide release (Griess assay); type: cell-based; details: J774.2 cells, 20 μM Aβ(1-42), 50 U/ml Interferon gamma, 24 hours, read-out: IC50 (μM) NO release
Description: as §1, §2, §3
The nitric oxide levels in the media were tested using the Griess assay (Promega G2930) using the manufacturer's instructions.

Pharmacokinetic data = details: in vivo; for bioavailability: oral
[3] = iv, read-out: T1/2 i.v. (converted)
[4] = per oral, read-out: T1/2 per oral (converted)

Structure (SMILES) | IC50 [1] | IC50 [2] | half-life (Pharmacokinetic data; [3]) | bioavailability (Pharmacokinetic data) | half-life (Pharmacokinetic data; [4])
Cc1nc2ncnn2c2c1CCN2[C@@H](C)c1ccc(F)cc1 [Compound 1] | 0.48 µM | 0.24 µM | 0.87 h | 98.5% | 3.2 h
Cc1nc2ncnn2c2c1CCN2[C@H](C)c1ccccc1 [Compound 4, reference compound] | > 30 µM |  |  |  | 
Cc1nc2ncnn2c2c1CCN2[C@@H](C)c1ccccc1 [reference compound] |  |  | 0.22 h | 34.5% | 2.4 h
